Legend:
prolyl 4-hydroxylase = details: U.S. Pat. Nos. 5,789,426; 5,965,585; 5,965,586; cited from earlier work
P4-H [1] = assay: Collagen-derived serum biomarkers (PIIINP, NC1, NTD) for P4-H activity in a tyrosinemia I patient during NTBC treatment; assay type: in vivo, human
Experimental: A total of ten biomarkers were monitored from just before initiation of NTBC medication to up to 103 days of treatment, generating a total of 60 data points. […] P4-H activity was assessed via specific antigens released from three different groups of collagens, all of which are substrates for this enzyme. These biomarkers, quantified by specific radioimmunoassay, consisted of PIIINP, an indicator for the fibril-forming collagen type III; NC1, a marker for the sheet-forming collagen type IV; and NTD, an indicator for the beaded filament-forming collagen type VI. The P1 antigen, derived from the non-collagenous protein laminin and thus not dependent on P4-H activity, served as control.

laminin P1 antigen = assay: Control biomarker P1 antigen of laminin (P4-H independent) during NTBC treatment; assay type: in vivo, human; details: P4-H independent protein
Source text: Inherit Metab. […] Res. 39:[…]

P4-H [2] = details: one other tyrosinemic child (Pitkanen et al. 1999); cited from earlier work

Structure (SMILES) | inhibition of prolyl 4-hydroxylase (prolyl 4-hydroxylase) | NCI (collagen type IV biomarker) rise over initial value (P4-H [1]; after 103 days on NTBC) | NTC (collagen type VI biomarker) rise over initial value (P4-H [1]; after 103 days on NTBC) | biomarkers for P4-H activity (PIIINP, NC1, NTD), response to NTBC (P4-H [1]; three months study period) | laminin P1 antigen, response to NTBC treatment (laminin P1 antigen) | initially elevated PIIINP level, response to treatment with NTBC (P4-H [2])
Cc1c(O)c(=O)ccn1C [DMHP, 1,2-dimethyl-3-hydroxypyrid-4-one] | known inhibitors of prolyl 4-hydroxylase | – | – | – | – | –
O=C1CCCC(=O)C1C(=O)c1ccc(C(F)(F)F)cc1[N+](=O)[O-] [NTBC, 2-(2-nitro-4-trifluoromethylbenzoyl)-cyclohexane-1,3-dione] | – | 1.1 factor | 1.1 factor | entirely unresponsive | unresponsive | non-responsive
